Measurements as given in patent publication US20020023385A1, “Method of controlling seed disease” (priority 2000, published 2002).

The substances below were run on Xanthomonas campestris p.v. campestris (assay: Cross-streak culture screening for antagonistic bacteria). Settings: cross application on potato dextrose-broth-agar medium, 25° C., 3 days.
Assay type: cell-based
Protocol: Filamentous fungi and bacteria (hereinafter referred to as “candidate microorganisms” in general) isolated from a seed or a soil is streaked on a same medium as that of the pathogenic microorganisms of the seed borne disease which is a target to be controlled in a dual or cross manner and are cultured for several days under a temperature suitable for growing the pathogenic microorganisms (dual culture). After the microorganism have been cultured, growth thereof are observed; then, the one which apparently controlled the growth of the pathogenic microorganisms by the candidate microorganism is selected as the effective microorganism which has an antagonistic property (Laboratory Guide for Plant Pathology and Microbiology, 459-474, Satoshi Wakimoto et al., Soft Science Inc., 1993).
Each type of the above-described seeds was shaken in a physiological saline solution (a distilled water solution containing 0.85 weight % of sodium chloride) having 2.5 times the weight of the seeds for 2.5 hours. Then, the solution was evenly streaked on an albumin-agar culture medium. In six days after streaking, a colony which has emerged was isolated and, then, streaked on a potato dextrose-broth-agar culture medium (available from Difco Laborarories, Mich., U.S.A.) in a cross application manner against Xanthomonas campestris p.v. campestris to be cultured at 25° C. […] As a result, three bacterial strains under names of TK-12, TK-151, and TK-185 were obtained. Taxonomic properties of these three strains are shown below in Table 1.
For Leclercia adecarboxylata TK-151, the “control of growth of Xanthomonas campestris p.v. campestris” value was “controls growth of such Xanthomonas campestris p.v. campestris”.
For Pantoea sp. TK-12, the “control of growth of Xanthomonas campestris p.v. campestris” value was “controls growth of such Xanthomonas campestris p.v. campestris”.
With Pantoea sp. TK-185 the “control of growth of Xanthomonas campestris p.v. campestris” value was “controls growth of such Xanthomonas campestris p.v. campestris”.
